This test has as its system HCT116. Particulars: 72 h. The essentials: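 After seeding at 250 cells per well in 1536-well plates, HCT116 cells were given 5 h to attach. CellTiter-Glo luminescence, scaled to 0% for vehicle and -100% for positive control, was pattern-corrected. Fitting with a four-parameter Hill model produced IC50 and maximal efficacy.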

The source of these data is the supplement of paper PMC12137928.

Structures are written as SMILES. Structures can show the parent of a compound that is named as a salt.

Consider `CCOC(=O)[C@H](C)C[C@@H](Cc1ccc(-c2ccccc2)cc1)NC(=O)CCC(=O)O` [AHU-377], for which the IC50 cell viability is > 45.8 µM (ICRF193 0 nM) and > 45.8 µM (ICRF193 200 nM).
On to `CC/C=C\C/C=C\C/C=C\C/C=C\C/C=C\CCCC(=O)O` [Eicosapentaenoic Acid], for which the IC50 cell viability is > 45.8 µM (ICRF193 0 nM) and > 45.8 µM (ICRF193 200 nM).
With `c1ccc([C@H]2CN3CCSC3=N2)cc1` [Levamisole hydrochloride], the IC50 cell viability (ICRF193 0 nM) was > 45.8 µM and the IC50 cell viability (ICRF193 200 nM) was > 45.8 µM.
On to `CC[N+](C)(CC)CCOC(=O)C(O)(c1ccccc1)C1CCCCC1` (configuration not stated) [Oxyphenonium bromide], for which the IC50 cell viability by setting is: (ICRF193 0 nM) > 45.8 µM; (ICRF193 200 nM) > 45.8 µM.
Regarding `CC(=O)OCC(=O)[C@@]12OC3(CCCC3)O[C@@H]1C[C@H]1[C@@H]3CCC4=CC(=O)C=C[C@]4(C)[C@@]3(F)[C@@H](O)C[C@@]12C` [AMCINONIDE], the IC50 cell viability (ICRF193 0 nM) is > 45.8 µM and the IC50 cell viability (ICRF193 200 nM) is > 45.8 µM.
For `O=c1[nH]c(=O)c2[nH]c(O)nc2[nH]1` [Sodium urate], the IC50 cell viability (ICRF193 0 nM) was > 45.8 µM and the IC50 cell viability (ICRF193 200 nM) was > 45.8 µM.
For `O=C1O[C@H]([C@@H](O)CO)C(O)=C1O` [L-Ascorbic acid], the IC50 cell viability reads like this: (ICRF193 0 nM) > 45.8 µM; (ICRF193 200 nM) > 45.8 µM.
Regarding `CCCCNCC(O)c1ccc(O)cc1` (configuration not stated) [Bamethan], the IC50 cell viability runs as follows: (ICRF193 0 nM) > 45.8 µM; (ICRF193 200 nM) > 45.8 µM.
For `C=C[C@]1(C)C[C@@H](OC(=O)CSCCN(CC)CC)[C@]2(C)[C@H](C)CC[C@]3(CCC(=O)[C@H]32)[C@@H](C)[C@@H]1O` [Tiamulin], the IC50 cell viability is > 45.8 µM (ICRF193 0 nM) and > 45.8 µM (ICRF193 200 nM).
`NC(=O)c1cn(Cc2c(F)cccc2F)nn1` [Rufinamide]: the IC50 cell viability was > 45.8 µM (ICRF193 0 nM) and > 45.8 µM (ICRF193 200 nM).
Regarding `CCOc1ccc(C(=O)OCCN(CC)CC)cc1` [Parethoxycaine], the IC50 cell viability (ICRF193 0 nM) was > 45.8 µM and the IC50 cell viability (ICRF193 200 nM) was > 45.8 µM.
Turning to `C[C@@H]1C[C@H]2[C@@H]3CCC4=CC(=O)C=C[C@]4(C)[C@@]3(F)[C@@H](O)C[C@]2(C)[C@@]1(O)C(=O)COP(=O)(O)O` [Dexamethasone 21-phosphate disodium salt], the IC50 cell viability reads like this: (ICRF193 0 nM) > 45.8 µM; (ICRF193 200 nM) > 45.8 µM.
For `CC(C)(O)[C@@H]1[C@H]2OC(=O)[C@@H]1[C@]1(O)C[C@H]3O[C@]34C(=O)O[C@H]2[C@]14C` [PICROTIN], the IC50 cell viability (ICRF193 0 nM) is > 45.8 µM and the IC50 cell viability (ICRF193 200 nM) was > 45.8 µM.
As for `FC(F)OC(F)(F)C(F)Cl` (configuration not stated) [Enflurane], the IC50 cell viability is > 45.8 µM (ICRF193 0 nM) and > 45.8 µM (ICRF193 200 nM).
Consider `Nc1c(CC(=O)O)cccc1C(=O)c1ccccc1` [Amfenac Sodium], for which the IC50 cell viability reads like this: (ICRF193 0 nM) > 45.8 µM; (ICRF193 200 nM) > 45.8 µM.
As to `CCCCNC(=N)NC(=N)N` [Buformin], the IC50 cell viability (ICRF193 0 nM) is > 45.8 µM and the IC50 cell viability (ICRF193 200 nM) was > 45.8 µM.
On to `C[C@]12C=CC(=O)C=C1CC[C@@H]1[C@@H]2C(=O)C[C@@]2(C)[C@H]1CC[C@]2(O)C(=O)CO` [Prednisone], for which the IC50 cell viability by setting is: (ICRF193 0 nM) > 45.8 µM; (ICRF193 200 nM) > 45.8 µM.
On to `CC(=O)SCC(CC(=O)c1ccc(C)cc1)C(=O)O` (configuration not stated) [Esonarimod], for which the IC50 cell viability is > 45.8 µM (ICRF193 0 nM) and > 45.8 µM (ICRF193 200 nM).
In the case of `CCN[C@H]1C[C@H](C)S(=O)(=O)c2sc(S(N)(=O)=O)cc21` [Dorzolamide hydrochloride], the IC50 cell viability by setting is: (ICRF193 0 nM) > 45.8 µM; (ICRF193 200 nM) > 45.8 µM.
With `CC(=O)O[C@H]1C[C@@]2(C)[C@@H](C[C@@H](O)[C@H]3[C@@]4(C)CC[C@@H](O)[C@@H](C)[C@@H]4CC[C@@]32C)/C1=C(\CCC=C(C)C)C(=O)O` [Fusidic Acid (sodium salt)], the IC50 cell viability (ICRF193 0 nM) is > 45.8 µM and the IC50 cell viability (ICRF193 200 nM) is > 45.8 µM.
Turning to `CC(C)Nc1cccnc1N1CCN(C(=O)c2cc3cc(NS(C)(=O)=O)ccc3[nH]2)CC1` [Delavirdine], the IC50 cell viability was > 45.8 µM (ICRF193 0 nM) and > 45.8 µM (ICRF193 200 nM).
`C[Se]CC[C@H](N)C(=O)O` [Selenomethionine]: the IC50 cell viability was > 45.8 µM (ICRF193 0 nM) and > 45.8 µM (ICRF193 200 nM).
Regarding `Oc1ccc(OCc2ccccc2)cc1` [Monobenzone], the IC50 cell viability is > 45.8 µM (ICRF193 0 nM) and > 45.8 µM (ICRF193 200 nM).
On to `CC1CCN(CCCC(=O)c2ccc(F)cc2)CC1` [Methylperone], for which the IC50 cell viability reads like this: (ICRF193 0 nM) > 45.8 µM; (ICRF193 200 nM) > 45.8 µM.
As to `CC1(C)S[C@@H]2[C@H](NC(=O)Cc3ccccc3)C(=O)N2[C@H]1C(=O)O` [Penicillin G Sodium], the IC50 cell viability runs as follows: (ICRF193 0 nM) > 45.8 µM; (ICRF193 200 nM) > 45.8 µM.
As to `CC(=O)c1cc2cccc(OCC(O)CNC(C)C)c2o1` (configuration not stated) [Befunolol], the IC50 cell viability reads like this: (ICRF193 0 nM) > 45.8 µM; (ICRF193 200 nM) > 45.8 µM.
